# In patent US12077503B2, “Substituted cyclic amides and their use as herbicides” (FMC CORPORATION, priority 2015, dated 2024):
# Columns and labels:
# Type in all cases: in vivo
# [1] = test system: sedge, umbrella (small-flower umbrella sedge, Cyperus difformis); assay: Test B flooded paddy test; settings: Flood, 250 g ai/ha; 0 to 100 scale where 0 is no effect and 100 is complete control; 13 to 15 d
# In short: (§1)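 Greenhouse paddy pots with 2-leaf stage plants received compound by direct addition to floodwater 3 cm deep, kept at that level. Scored visually at 13–15 d versus controls (0 no effect; 100 complete control).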
# [2] = test system: barnyardgrass (Echinochloa crus-galli); assay: Test B flooded paddy test; settings: Flood, 250 g ai/ha; 0 to 100 scale where 0 is no effect and 100 is complete control; 13 to 15 d
# In short: as §1
# [3] = test system: rice (Oryra sativa); assay: Test B flooded paddy test; settings: Flood, 250 g ai/ha; 0 to 100 scale where 0 is no effect and 100 is complete control; 13 to 15 d
# In short: as §1
# [4] = test system: ducksalad (Heteranthera limosa); assay: Test B flooded paddy test; settings: Flood, 250 g ai/ha; 0 to 100 scale where 0 is no effect and 100 is complete control; 13 to 15 d
# In short: as §1
# [5] = test system: giant foxtail (Setaria faberii); assay: Test A postemergence; settings: postemergence
# In short: (§2)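 Compounds were formulated in a non-phytotoxic solvent mixture with surfactant and applied as a preemergence directed soil spray after seeding, or sprayed postemergence over plants 2 to 10 cm tall at the one- to two-leaf stage. Evaluation after about 10 d compared treated with untreated controls, using a scale from 0 (no effect) to 100 (complete control).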
# [6] = test system: barnyardgrass (Echinochloa crus-galli); assay: Test A postemergence; settings: postemergence
# In short: as §2
# [7] = test system: blackgrass (Alopecurus myosuroides); assay: Test A postemergence; settings: postemergence
# In short: as §2
# [8] = test system: pigweed (Amaranthus retroflexus); assay: Test A postemergence; settings: postemergence
# In short: as §2
# [9] = test system: wheat (Triticum aestivum); assay: Test A postemergence; settings: postemergence
# In short: as §2
# [10] = test system: corn (Zea mays); assay: Test A postemergence; settings: postemergence
# In short: as §2
# [11] = test system: ryegrass, Italian (Italian ryegrass, Lolium multiflorum); assay: Test A postemergence; settings: postemergence
# In short: as §2
# [12] = test system: Kochia (Kochia scoparia); assay: Test A postemergence; settings: postemergence
# In short: as §2
# [13] = test system: ragweed (common ragweed, Ambrosia elatior); assay: Test A postemergence; settings: postemergence
# In short: as §2
# [14] = test system: Galium (catchweed bedstraw, Galium aparine); assay: Test A postemergence; settings: postemergence
# In short: as §2
# [15] = test system: pigweed (Amaranthus retroflexus); assay: Test C preemergence; settings: scale 0 to 100, 0 no effect, 100 complete control
# Description: Seeds of plant species selected from blackgrass (Alopecurus myosuroides), ryegrass, Italian (Italian ryegrass, Lolium multiflorum), wheat (winter wheat, Triticum aestivum), Galium (catchweed bedstraw, Galium aparine), corn (Zea mays), crabgrass, large (large crabgrass, Digitaria sanguinalis), foxtail, giant (giant foxtail, Setaria faberii), johnsongrass (Sorghum halepense), lambsquarters (Chenopodium album), morningglory (Ipomoea coccinea), nutsedge, yellow (yellow nutsedge, Cyperus esculentus), pigweed (Amaranthus retroflexus), ragweed (common ragweed, Ambrosia elatior), soybean (Glycine max), barnyardgrass (Echinochloa crus-galli), oilseed rape (Brassica napus), waterhemp (common waterhemp, Amaranthus rudis) and velvetleaf (Abutilon theophrasti) were planted into a blend of loam soil and sand and treated preemergence with test chemicals formulated in a non-phytotoxic solvent mixture which included a surfactant.
# At the same time, plants selected from these crop and weed species and also Kochia (Kochia scoparia), oat, wild (wild oat, Avena fatua), and chickweed (common chickweed, Stellaria media) were planted in pots containing Sunshine Redi-Earth® planting medium comprising spaghnum peat moss, vermiculite, starter nutrients and dolomitic limestone and treated with postemergence applications of test chemicals formulated in the same manner. Plants ranged in height from 2 to 18 cm (1- to 4-leaf stage) for postemergence treatments. Treated plants and controls were maintained in a greenhouse for 13 to 15 d, after which time all species were compared to controls and visually evaluated. Plant response ratings, summarized in Table C, are based on a scale of 0 to 100 where 0 is no effect and 100 is complete control. A dash (-) response means no test result.
# [16] = test system: giant foxtail (Setaria faberii); assay: Test A preemergence
# In short: as §2
# [17] = test system: barnyardgrass (Echinochloa crus-galli); assay: Test A preemergence
# In short: as §2
# [18] = test system: pigweed (Amaranthus retroflexus); assay: Test A preemergence
# [19] = test system: ryegrass, Italian (Italian ryegrass, Lolium multiflorum); assay: Test A preemergence
# In short: as §2
# [20] = test system: Kochia (Kochia scoparia); assay: Test A preemergence
# In short: as §2
# [21] = test system: ragweed (common ragweed, Ambrosia elatior); assay: Test A preemergence
# In short: as §2
# [22] = 125 g ai/ha, visual injury rating on 0 to 100 scale (0 no effect, 100 complete control), approx. 10 d
# [23] = 500 g ai/ha, 0 to 100 scale, 0 no effect, 100 complete control
# [24] = 125 g ai/ha, preemergence, 0 to 100 scale (0 no effect, 100 complete control)
# [25] = Preemergence, 500 g ai/ha, visual injury approx. 10 d
smiles,measurement,setting,value
CN1CC(c2ccc(C(F)(F)F)c(F)c2)C(C(=O)Nc2ccccc2S(C)(=O)=O)C1=O (stereo not shown) [Compound 397],"Plant response rating, Sedge, Umbrella",[1],0
same,"Plant response rating, Barnyardgrass",[2],65
same,"Plant response rating, Rice",[3],0
same,"Plant response rating, Ducksalad",[4],75
same,"Foxtail, Giant plant response rating",[5]; [22],70
same,"Plant response rating, Foxtail, Giant",[5]; [23],80
same,Barnyardgrass plant response rating,[6]; [22],70
same,"Plant response rating, Barnyardgrass",[6]; [23],90
same,Blackgrass plant response rating,[7]; [22],60
same,"Plant response rating, Blackgrass",[7]; [23],70
same,Pigweed plant response rating,[8]; [22],40
same,"Plant response rating, Pigweed",[8]; [23],70
same,Wheat plant response rating,[9]; [22],40
same,"Plant response rating, Wheat",[9]; [23],50
same,Corn plant response rating,[10]; [22],50
same,"Plant response rating, Corn",[10]; [23],70
same,"Ryegrass, Italian plant response rating",[11]; [22],40
same,"Plant response rating, Ryegrass, Italian",[11]; [23],60
same,Kochia plant response rating,[12]; [22],20
same,"Plant response rating, Kochia",[12]; [23],50
same,Ragweed plant response rating,[13]; [22],0
same,"Plant response rating, Ragweed",[13]; [23],20
same,Galium plant response rating,[14]; [22],60
same,"Plant response rating, Galium",[14]; [23],60
same,"Plant response rating, Pigweed",[15]; 31 g ai/ha,55
same,"Plant response rating, Pigweed",[15]; 62 g ai/ha,90
same,"Plant response rating, Pigweed",[15]; 125 g ai/ha,95
same,"Plant response rating, Pigweed",[15]; 250 g ai/ha,95
same,"Plant response rating, Foxtail, Giant",[16]; [24],90
same,"Foxtail, Giant plant response rating (0 to 100 scale, 0 is no effect, 100 is complete control)",[16]; [25],90
same,"Plant response rating, Barnyardgrass",[17]; [24],80
same,"Barnyardgrass plant response rating (0 to 100 scale, 0 is no effect, 100 is complete control)",[17]; [25],90
same,"Plant response rating, Pigweed",[18]; [24],90
same,"Pigweed plant response rating (0 to 100 scale, 0 is no effect, 100 is complete control)",[18]; [25],90
same,"Plant response rating, Ryegrass, Italian",[19]; [24],30
same,"Ryegrass, Italian plant response rating (0 to 100 scale, 0 is no effect, 100 is complete control)",[19]; [25],70
same,"Plant response rating, Kochia",[20]; [24],70
same,"Kochia plant response rating (0 to 100 scale, 0 is no effect, 100 is complete control)",[20]; [25],90
same,"Plant response rating, Ragweed",[21]; [24],50
same,"Ragweed plant response rating (0 to 100 scale, 0 is no effect, 100 is complete control)",[21]; [25],70
